Test results taken from US4153709A, “N-Heterocyclic ureas as immune regulants” (Eli Lilly and Company, priority 1977, dated 1979).
Where two headings read alike, the source gives them in different places.

How the values were obtained:
[1] = system: Salmonella typhimurium G46 missense histidine-auxotroph; test: Host mediated assay (in vivo mutagenicity), G46 indicator (Table 22); set-up: species or system Salmonella typhimurium in Cox white Swiss male mice
Method: Cox white Swiss male mice 25-30 grams were used in all in vivo tests.
A. Drug Administration: Appropriate solvents were used where applicable with a solvent control run within each test. […] The organisms were grown to stationary phase, then diluted with normal saline to give an inoculum near 1×10^8 organisms per milliliter. The abdominal area of the drug-treated mouse was swabbed with alcohol and two milliliters of bacterial culture were injected into the abdominal cavity of the mouse. The mice were returned to their cages for 3-4 hours.
C. Autopsy and Recovery: The mice were sacrificed individually by cervical dislocation prior to each autopsy. The abdominal areas were soaked with ethanol. The peritoneum was bared and 2.5 ml. of sterile normal saline was injected into the peritoneal cavity using a sterile (3-ml. plastic syringe with a 20-gauge needle. After insertion, the needle is turned bevel up and the saline was expelled into the cavity; while the needle remains through the peritoneum, keeping the point of the needle in sight pressed against the peritoneal wall, the abdomen of the mouse was massaged to mix contents. The saline wash was removed from the abdominal cavity back into the syringe. The needle was removed and the contents expelled into an appropriately marked tube and iced 4° C.
D. Dilution and Plating: One-ml. samples were plated at 10° dilution on all mice to determine revertants (histidine+).
A one-milliliter sample from the untreated dilutions from control animals is plated 10^-6, 10^-7, and 10^-8 dilutions with excess histidine to determine mutable population (histidine-).

[2] = system: Salmonella typhimurium G46 missense histidine-auxotroph; test: Qualitative in vitro prescreen for mutagenicity, G46 indicator (Table 22); settings: 200 mcg disc
Source text: Filter paper discs 1/4" were impregnated with 200 mcg of test compound using either H2 O or DMSO as solvent. The discs were placed on Petri dishes containing minimal media which had been individually seeded with one of the twelve tester strains. […] A uniform circle of colonies appear around the pad when a compound with mutagenic potential is present. The test compound forms a concentration gradient as it diffuses from the pad. Occasionally, there is a clear ring in close proximity to the pad surrounded by a uniform circle of revertant colonies which indicates a lethal mutation at high concentration of compound and nonlethal mutation at lesser concentration. A single pad thus allows one to test a compound over a wide range of concentrations. Histidine+ colonies were developed enough to read after 48 hr. incubation at 37° C. The plates were read as follows:
A. background zone, if present, is measured in millimeters, if not, a negative is recorded (-).
B. mutant zone is measured in millimiters, if present; if not, a negative (-) is recorded.
C. the mutation frequency can be estimated from density of mutant colonies as follows:
1. Low frequency--few colonies
2. Moderate frequency--many colonies
3. High frequency--dense ring of colonies
4. No colonies recorded (-)

[3] = system: Salmonella typhimurium G46 missense histidine-auxotroph; assay type: cell-based
Method: Compounds found active in the qualitative test were further tested. The culture to be tested was grown to stationary phase in tryptone yeast broth and then diluted to a viable count of about 9×10^7 organisms per milliliter.
Eleven log4 dilutions of the test compound were made covering a range that would allow survival of nonlethal mutants. The dilutions were made in Spizizen's minimal media with minute amounts of histidine and biotin (20 nM) each in […]. tubes. Each tube contained 3 ml. after dilution. Replicate 1 ml. aliquots of test organism were added to each tube including six "0" drug tubes. Final drug concentrations were calculated from 4-ml. volumes (3 ml. drug dilution +1 ml. test organism). Two of the "0" drug tubes were immediately plated at 10° dilution in minimal medium and 10^-5, 10^-6, 10^-7 dilutions in medium containing excess histidine (40 mcg/ml.) Spontaneous revertants (histidine+) were detected in the 10° dilution. Mutable population (histidine-) were detected in the 10^-5, 10^-6, and 10^-7 dilutions. All remaining dilutions were incubated in a Dubonoff shaker at 37° C. for 4 hr., then iced at 4° C. […] A 1-ml. aliquot from each "0" control was also plated at 10^-6, 10^-7, and 10^-8 dilutions in media with excess histidine to detect growth of mutable population (histidine-); normally there are 3-4 generations of the mutable population. All minimal media plates were counted. A dose response increase in revertants above spontaneous background indicated mutagenic potential of a test compound. […] Lethality has occurred to both populations, histidine+ and histidine-, at the same compound levels in all drugs tested to date.
The results are recorded as mutants test/mutants control.

[4] = system: antibody to sheep red blood cells; test: 75 percent reduction of control antibody titer in mice by subcutaneous, percutaneous and oral routes (Table 16); assay type: in vivo, male Swiss mice; settings: Mus musculus, Erythrocyte
Method: Subcutaneous, percutaneous, and oral activity have been achieved as indicated in Table 16 which follows employing representative compounds from the above entitled application. […] Except as indicated, the tests were performed using groups of five 20-gram male Swiss mice injected with 5×10^7 sheep red blood cells intravenously for each drug level. Ten (daily) administrations of drug were made commencing three days prior to red blood cell injection. On the day following the final treatment (7 days after red blood cell injection) the animals were bled by cardiac puncture, the sera from each five-mouse-group were pooled, and antibody titers of these serum pools and corresponding serum pools from control (untreated) mouse groups were determined. The results are expressed as the minimum drug dose effecting 75 percent reduction of control antibody titer: […]

[5] = system: graft versus host reaction; test: Graft versus host (GVH) reaction, spleen weight (Tables 20, 21); assay type: in vivo, mice (C57BL donors, F1 hybrid C57BL×C3H recipients)
Method: In this determination, […] (C57BL) mouse spleen cells are injected into mice of an F1 hybrid strain (C57BL×C3H). […] The injected cells, however, mount a reaction to the recipient's tissues due to the foreign C3H-derived antigens. As a consequence, the recipient's spleen becomes enlarged. Immunosuppressive therapy prevents or reduces this enlargement. Thus, spleen weights provide a measure of the GVH reaction and its reduction under immunosuppression.
Treated and GVH control animals receive an intraperitoneal injection of 1.2×10^9 splenic lymphocytes from the C57 donors. Spleens are weighed ten days later. Spleen weights derived from groups of recipient mice receiving genetically homologous, i.e., syngeneic cells (C57BL×C3H) provide normal control values for calculating percent inhibition in drug-treated groups. For example, mice given 13 daily topical doses of 1-(4,5,6,7-tetra-hydro-2-benzothiazolyl)-3-phenyl urea show a 62% reduction in GVH reaction relative to controls, as set forth in Table 20.
Using this procedure, three compounds from the above useful in the processes of this invention have been compared with several reference immunosuppressive drugs. Treatment levels defining the 50 percent inhibitory dose have been determined.

neoplasms in NZBxW mice = settings: Walker and Bole, J. Lab. Clin. Med. 82,619 (1972); control 5 percent; cited from earlier work
[6] = system: antibody response to sheep blood cells (hemaglutination titer); test: Immune regulating test: suppression of hemaglutination titer by 4-fold factor in mice (i.p. drug, i.p. sheep blood cells), Tables 1-15; assay type: in vivo, Swiss mice; settings: Mus musculus, ip, 192 h, × 3, intraperitoneal, minimum dose to suppress the hemaglutination titer by a 4-fold factor, 8 days after antigen, read-out: Immuno-Suppressant ED4-Fold
Method: The ability of compounds according to the above formulas to alter immune mechanisms in a host animal was measured by their activity according to the following test. Groups of five 20-gram Swiss mice were injected intraperitoneally with standardized suspensions of an antigen--in this instance sheep blook cells. […] Eight days after injection of the antigen, the mice were bled and the sera from each group pooled. Antibody determinations were made on the serum pools by a hemaglutination pattern procedure and comparisons made between treated and control animals. In Tables 1-18 which follow, the activity of the compounds listed therein is given in terms of the minimum dose of drug necessary to suppress the hemaglutination titer by a 4-fold factor in the treated mice as compared with control titers.

[7] = system: antibody to the sheep red blood cell antigen; test: Antibody response to sheep red blood cells in marmosets, injected drug; assay type: in vivo; settings: 25 mg/kg daily for three days
Method: In order to determine if the compounds disclosed herein had immunoalterant activity in a primate species, representative numbers of the series were tested in marmosets. 1-(2-Fluorophenyl)-3-(6-methoxy-2-benzothiazolyl) urea was injected in 25 mg/kg doses daily for three days into five marmosets. A similar group of five untreated marmosets was reserved as a control series. On the day following the third treatment, all animals received intraperitoneal injections of antigen (1×10^9 sheep red blood cells). On the 7th day following antigen injection, serum levels of antibody to the sheep red blood cell antigen were determined.

[8] = sc, subcutaneous, × 10 daily doses commencing 3 days before antigen i.v., read-out: Lowest Dose Producing 75% Immunosuppression, Subcutaneous
[9] = percutaneous, × 10 daily doses commencing 3 days before antigen i.v., read-out: Lowest Dose Producing 75% Immunosuppression, Percutaneous
[10] = oral, × 10 daily doses commencing 3 days before antigen i.v., read-out: Lowest Dose Producing 75% Immunosuppression, Oral
[11] = 300 mg/kg, s.c., MT/MC of 3 would indicate mutagenic potential

CC(=O)Oc1ccccc1C(=O)O [ASA, Acetylsalicylic Acid]
IN VIVO mutants test/mutants control ([1]; 30 mg/kg, oral gavage): 1.11
IN VIVO mutants test/mutants control ([1]; 300 mg/kg, oral gavage): 1.06
IN VITRO QUALITATIVE ACTIVITY [2]: N
IN VITRO QUANTITATIVE MT/MC ([3]; 750 mcg/ml): .58

C[C@]12CCC(=O)C=C1CC[C@@H]1[C@@H]2C(=O)C[C@@]2(C)[C@H]1CC[C@]2(O)C(=O)CO [Cortisone, reference compound]
minimal effective dose [4, 8]: 25 mg/kg
minimal effective dose ([4]; oral, × 10, **antigen given intraperitoneally, read-out: Lowest Dose Producing 75% Immunosuppression, Oral): 200 to 400 mg/kg
minimal effective dose [4, 9]: 50 mg/kg
Percent GVH Inhibition ([5]; 1.56 mg/kg × 13, s.c.): 48%
Percent GVH Inhibition ([5]; 3.12 mg/kg × 13, s.c.): 82%

O=P1(N(CCCl)CCCl)NCCCO1 (centres unmarked) [Cyclophosphamide, reference compound]
minimal effective dose [4, 10]: 25 mg/kg
minimal effective dose [4, 9]: 25 mg/kg
incidence of neoplasms (neoplasms in NZBxW mice): 100%
Percent GVH Inhibition ([5]; 6.25 mg/kg × 13, s.c.): 32%
Percent GVH Inhibition ([5]; 12.5 mg/kg × 13, s.c.): 53%

CN(C)N=O [DMNA, N-nitrosodimethylamine]
IN VIVO mutants test/mutants control ([1]; 3 mg/kg, s.c.): 1.16
IN VIVO mutants test/mutants control ([1]; 30 mg/kg, s.c.): 43.6
IN VIVO mutants test/mutants control [1, 11]: 620
requirement of host mediation for mutagenic potential ([1]; mouse, in vivo): requiring host-mediation to demonstrate mutagenic potential
IN VITRO QUALITATIVE ACTIVITY [2]: N
IN VITRO QUANTITATIVE MT/MC ([3]; 750 mcg/ml): .33

CN(N=O)C(=O)N[C@H]1C(O)O[C@H](CO)[C@@H](O)[C@@H]1O (some centres unmarked) [STREPTOZOTOCIN]
IN VIVO mutants test/mutants control ([1]; 3 mg/kg, s.c.): 2782
IN VIVO mutants test/mutants control ([1]; 30 mg/kg, s.c.): 444
IN VIVO mutants test/mutants control ([1]; .03 mg/kg, s.c.): 3.35
IN VIVO mutants test/mutants control ([1]; .3 mg/kg, s.c.): 278
IN VITRO QUALITATIVE FREQ (mutation frequency) [2]: HIGH
IN VITRO QUANTITATIVE MT/MC ([3]; .11 mcg/ml): 6750

C1CN1c1nc(N2CC2)nc(N2CC2)n1 [TEM, trimethylenemelamine]
IN VIVO mutants test/mutants control ([1]; 3 mg/kg, s.c.): 13
IN VIVO mutants test/mutants control ([1]; 30 mg/kg, s.c.): 27
IN VIVO mutants test/mutants control [1, 11]: 13
IN VIVO mutants test/mutants control ([1]; .3 mg/kg, s.c.): 3.2
IN VITRO QUALITATIVE FREQ (mutation frequency) [2]: MEDIUM
IN VITRO QUANTITATIVE MT/MC ([3]; 180 mcg/ml): 24

O=C(Nc1ccccc1)Nc1nc2ccccc2[nH]1 [Table 1: phenyl, H, 1-(2-benzimidazolyl)-3-phenyl urea]
minimal effective dose [6]: 12.5 mg/kg
minimal effective dose ([4]; sc, subcutaneous, *seven doses, once daily, commencing the day of antigen administration, read-out: Lowest Dose Producing 75% Immunosuppression, Subcutaneous): 31.5 mg/kg

COc1ccc2nc(NC(=O)Nc3ccccc3F)sc2c1 [Table 11: o-fluorophenyl, 6-CH3 O, S, 1-(2-Fluorophenyl)-3-(6-methoxy-2-benzothiazolyl) urea]
minimal effective dose [6]: < 3.1 mg/kg
treated animals showing detectable antibody ([7]; injected, five marmosets, 7th day following antigen): only one of the treated animals
antibody titer of the responding treated animal ([7]; controls titers from 1-10 to 1-80): 1-10

O=C(Nc1ccccc1)Nc1nc2ccccc2s1 [Table 11: phenyl, H, S, 1-(2-benzothiazolyl)-3-phenyl urea]
minimal effective dose [6]: 6.2 mg/kg
minimal effective dose [4, 8]: 1 mg/kg
minimal effective dose [4, 10]: 25 mg/kg
minimal effective dose [4, 9]: 6.2 to 12.5 mg/kg
Percent GVH Inhibition ([5]; 0.8 mg/kg × 13, s.c.): 29%
Percent GVH Inhibition ([5]; 1.6 mg/kg × 13, oral): 46%
Percent GVH Inhibition ([5]; 1.6 mg/kg × 13, s.c.): 54%
Percent GVH Inhibition ([5]; 3.12 mg/kg × 13, oral): 64%

O=C(Nc1ccccc1)Nc1nc2c(s1)CCCC2 [Table 13: phenyl, 1-(4,5,6,7-tetrahydro-2-benzothiazolyl)-3-phenyl urea]
minimal effective dose [6]: 25 mg/kg
minimal effective dose [4, 8]: 12.5 mg/kg
minimal effective dose [4, 10]: 25 to 100 mg/kg
minimal effective dose [4, 9]: 3.1 mg/kg
Percent GVH Inhibition ([5]; 50 mg/kg × 13, oral): 41%
Percent Inhibition of GVH reaction ([5]; 100 mg/kg × 13, daily topical): 62%
Mg Spleen/g Body Weight ± S.E. ([5]; 100 mg/kg × 13, daily topical, GVH control 11.03 ± 0.35, syn. control 5.20 ± 0.37): 7.42 ± 0.63 Mg Spleen/g Body Weight
Percent GVH Inhibition ([5]; 100 mg/kg × 13, oral): 54%
